Test results published in patent publication US9180212B2, “β-amyloid plaque imaging agents” (The Regents of the University of California, priority 2012, dated 2015).
“Also recorded” adds a separate entry of the source.

Key:
[1] = cited from earlier work
amyloid plaques = target: T1, amyloid plaques (Homo sapiens, UniProt P05067); experiment: ^3H-PIB competition binding in human Alzheimers brain homogenate
T1 construct: target the polymeric form of the β-amyloid peptide that is associated with senile plaques; from tissue; host or cells: human Alzheimer's disease brain homogenate (post mortem)

[2] = system: brown adipose tissue (BAT) metabolic activity; experiment: ^18F-FDG PET/CT uptake in interscapular BAT of rats; assay type: in vivo, Sprague-Dawley rats
Text: (§1) In still further experiments, binding/uptake of contemplated compounds to/by NET was investigated in adipose tissue, and especially brown adipose tissue. It should be appreciated that due to the innervation of brown adipose tissue (BAT) with neurotransmitter, norepinephrine is essential for regulation of thermogenesis, and thus has a role in obesity and diabetes. Norepinephrine acts by activating β3-adrenoceptor to increase BAT metabolic activity measurable using ^18F-FDG PET. Norepinephrine transporter (NET) inhibitors such as atomoxetine play an important role in BAT activity by increasing norepinephrine levels.
(§2) Male Sprague-Dawley rats were fasted for 24 hrs prior to ^18F-FDG administration. Rats were administered i.v. ˜0.3 mCi ^18F-FDG under 2% isoflurane anesthesia. The same rats were treated with atomoxetine 1 mg/kg, 30 mins before ^18F-FDG administration. Rats were awake for 60 mins and subsequently anesthetized for upper-body Inveon MicroPET/CT scan. To evaluate whether enhanced ^18F-FDG uptake in activated BAT could be reduced by pharmacologic interventions, propranolol ([…]) 5 mg/kg was given intraperitoneally in anesthetized rats, 30 minutes prior to atomoxetine administration. For NET imaging, ^11C-TAZA (4-^11C-methylamino-4′-dimethylaminoazobenzene) and ^11C-Dalene (4-methylamino-4′-(N—^11C-methyl-N-methylamino)stilbene) were administered iv (˜0.5-3 mCi) and scanned in Inveon PET/CT for 90 mins. Competition studies were done with atomoxetine (preinjection, 1-2 mg/kg). PET/CT data was analysed using IRW and PMOD.

[3] = system: norepinephrine transporters (NET); experiment: Rat brain PET with atomoxetine pre-injection (NET binding/uptake); assay type: in vivo, Sprague-Dawley rats
Description: Based on earlier experimental observations (not shown), the inventors contemplated that the compounds presented herein not only bind with high specificity to β-amyloid, but also with similar high specificity to the NET. To investigate binding to/uptake by the NET, the effect of atomoxetine (ATX, a selective norepinephrine reuptake inhibitor) on the kinetics of Dalene and TAZA was tested. More specifically, Sprague-Dawley rats (308-468 g) received two 90 min PET scans each on two separate days (1-4 weeks apart) with an Inveon scanner. On first day each rat received a baseline scan, one with [^11C]Dalene and the other with [^11C]TAZA (96±8 MBq). The second day each animal was pre-injected i.v. with a 50 μl bolus of ATX (1-2 mg/Kg), 17 min before [^11C]Dalene and 2 min before [^11C]TAZA (33±7 MBq). The images were reconstructed dynamically in 25 frames (4×0.5 min, 8×1 min, 5×2 min, 2×5 min, 6×10 min). Each subject received a CT scan that was used for attenuation and scatter correction. Images were normalized to Paxinos & Watson space via co-registration with an MR rat template. Common regions of interest were drawn on the MR template and placed on brainstem, thalamus (Tha), and midbrain (Mid), brain regions with highest uptake as well as anterior cingulate cortex area 1 (Cg1), region with low NET density and which was chosen as a reference based on previous studies. Time activity curves (TACs) from all regions were analyzed in PMOD using Logan non-invasive method with Cg1's k2′ parameter estimated by fitting of brainstem data to MRTM.
Slices were then washed and exposed on to phosphor screens and slides were analysed by Optiquant image analysis program for SP binding Digital light units/mm^2 (DLU/mm^2). Sprague-Dawley rats were scanned after IV injection of ^11C-TAZA and ^11C-Dalene in Inveon PET/CT and displacement studies were done with atomoxetine (1 mg/kg). PET images were analyzed using PMOD. […] Presence of SP in the AD brains were confirmed using 4G8 antibody immunostaining for Aβ-amyloid. […] Ratios of brain stem to cingulate gyms (used as reference region) was >2.

[4] = target: T2, SP (senile plaques) in hippocampus of AD patients (Homo sapiens, UniProt P05067); experiment: In vitro autoradiography of human hippocampus slices (AD vs control), senile plaque imaging; assay type: binding; details: for Binding to SP present in AD brains compared to the normal controls (in words): autoradiography
T2 construct: target the polymeric form of the β-amyloid peptide that is associated with senile plaques; from tissue; host or cells: 7 micron frozen sections of hippocampus of AD patients and control brains (UCI-ADRC repository)
Text: Human post-mortem Studies: We used post mortem human brain specimens from the UCI-ADRC Brain tissue repository for in vitro experiments. Age and gender matched AD brain and control brain tissue were used. Control cases consisted of clinically assessed nondemented individuals ranging in age from 70-90 years of age. AD brain samples were selected for end-stage pathology (based upon comments by the neuropathologist and Braak & Braak stage of VI. We matched each AD case with a similarly aged control case. AD cases, were selected on the basis as having a clinic visit within 1 year of death. Frozen hippocampus and frontal cortex, regions vulnerable to AD pathology, were selected for these studies. Sections of the cerebellum were used as a measure of low/nonspecific binding. Chunks of frozen tissue were dissected for immunohistochemical and autoradiographic techniques, as well as for biochemical experiments.
Serial cryostat sections at 5-10 μm were used. The first set of sections was used to establish the extent of senile plaque and neurofibrillary tangle formation using immunohisto-chemistry and histological techniques. Antibodies against Aβ1-16, Aβ1-40 and Aβ1-42 were used to detect Aβ.
In vitro autoradiography studies were performed on 7 micron slices of hippocampus of AD patients (n=2) and control brains (n=2). Hippocampus slices were incubated with the radiotracer (10-25 μCi/cc) in 40% ethanol-water for ½ hour.
Binding to norepinephrine transporters (NET) were further evaluated in normal rats using PET/CT. Radiosynthesis was carried out by reacting 4-amino-4′-dimethylaminoazobenzene (1 mg/0.5 cc acetone for ^11C-TAZA) and 4-methylamino-4′-(N-methylamino)stilbene (1 mg/0.5 cc acetone for ^11C-Dalene) with 11C-methyltriflate prepared in the GE FXCPro synthesis unit. ^11C-Methyltriflate was trapped at −20° C., subsequently heated for 5 mins at 80° C. and purified using HPLC. In vitro autoradiography studies were performed on 7 micron slices of hippocampus of AD patients and control brains.
Slices were then washed and exposed on to phosphor screens and slides were analysed by Optiquant image analysis program for SP binding Digital light units/mm^2 (DLU/mm^2). Sprague-Dawley rats were scanned after IV injection of ^11C-TAZA and ^11C-Dalene in Inveon PET/CT and displacement studies were done with atomoxetine (1 mg/kg). PET images were analyzed using PMOD.

[5] = system: NET in brown adipose tissue (BAT); experiment: Rat PET/CT NET imaging in brown adipose tissue; assay type: in vivo, Sprague-Dawley rats; details: atomoxetine preinjection 1-2 mg/kg
Text: as §1
as §2, with “For NET imaging, ^11C-TAZA (4-^11C-methylamino-4′-dimethylaminoazobenzene) and ^11C-Dalene (4-methylamino-4′-(N—^11C-methyl-N-methylamino)stilbene) were administered iv (˜0.5-3 mCi) and scanned in Inveon PET/CT for 90 mins. Competition studies were done with atomoxetine (preinjection, 1-2 mg/kg).” left out

T2 sequence (P05067 672-713 limits assumed): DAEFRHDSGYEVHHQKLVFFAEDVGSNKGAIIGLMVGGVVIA
T1 sequence (P05067 672-713 limits assumed): as above

SMILES: CC(=C(C#N)C#N)c1ccc2cc(N(C)CC[18F])ccc2c1 [^18F-FDDNP, 2-(1-{6-[(2-[^18F]fluoroethyl)(methyl)amino]-2-naphtyl}ethylidene)malonitrile]
- log P [1]: > 3

SMILES: CNc1ccc(N=Nc2ccc(N(C)C)cc2)cc1 [TAZA]
- IC50 (amyloid plaques; human Alzheimers brain homogenate tissue in 10% alcohol in PBS buffer, ^3H-PIB, read-out: binding affinity (IC50)): 0.0128 µM
- times better in binding to amyloid plaques compared to PIB (amyloid plaques; human brain tissue, from IC50 values): ~10 times

SMILES: CC(C)NCC(O)COc1cccc2ccccc12 (centres unmarked) [Propranolol, propranolol]
- effect on average ^18F-FDG uptake of IBAT (in words) ([2]; propranolol 5 mg/kg intraperitoneally, 30 minutes prior to atomoxetine): reduced

SMILES: CN(C)c1ccc(C=Cc2ccc(N[11CH3])cc2)cc1 [^11C-Dalene, 4-^11C-methylamino-4′-(N,N-dimethylamino)stilbene]
- Effect of atomoxetine on binding in NET brain regions (in words) ([3]; rat, in vivo): reduced the binding
- baseline BPND (Mid) ([3]; rat, in vivo): 0.91
- baseline BPND (Tha) ([3]; rat, in vivo): 0.86
- baseline BPND (brainstem) ([3]; rat, in vivo): 1.42
- change in BPND in ATX condition (Mid) ([3]; rat, in vivo): 5.4%
- change in BPND in ATX condition (Tha) ([3]; rat, in vivo): −12%
- change in BPND in ATX condition (brainstem) ([3]; rat, in vivo): −18%
- peak uptake in ATX condition relative to control ([3]; rat, in vivo): 14 fold
- time at which ratio target/reference reached a constant level ([3]; rat, in vivo): 20 min
- Displacement of radiotracer by unlabeled PIB (in words) ([4]; 10 μM PIB, hippocampus slices): not complete; also recorded: displaced
- Binding to SP present in AD brains compared to the normal controls (in words) ([4]; hippocampus slices): bound specifically
- reduction of IBAT binding by atomoxetine [5]: 35%

SMILES: CNCC[C@@H](Oc1ccccc1C)c1ccccc1 [Atomoxetine, atomoxetine]
- increase of average ^18F-FDG uptake of IBAT compared to controls ([2]; atomoxetine 1 mg/kg, 30 mins before ^18F-FDG): > 15 times
- average ^18F-FDG uptake of IBAT ([2]; atomoxetine 1 mg/kg, 30 mins before ^18F-FDG, controls 23.9±8.7): 365±170 kBq/cc

SMILES: CN(C)c1ccc(N=Nc2ccc(N[11CH3])cc2)cc1 [^11C-TAZA, 4-^11C-methylamino-4′-dimethylamino-azobenzene]
- change in BPND in ATX condition (brainstem) ([3]; ATX 1-2 mg/Kg i.v. pre-injection): 11%
- Effect of atomoxetine on binding in NET brain regions (in words) ([3]; atomoxetine 1 mg/kg): reduced the binding
- time at which ratio target/reference reached a constant level ([3]; baseline condition, post tracer injection): 20 min
- baseline BPND (brainstem) ([3]; baseline scan, Logan non-invasive method, Cg1 reference): 0.7
- peak uptake in ATX condition relative to control ([3]; brainstem, ATX 1-2 mg/Kg i.v. pre-injection): 5 fold
- baseline BPND (Mid) ([3]; midbrain, baseline scan, Cg1 reference): 0.50
- change in BPND in ATX condition (Mid) ([3]; midbrain, ATX 1-2 mg/Kg i.v. pre-injection): 18%
- baseline BPND (Tha) ([3]; thalamus, baseline scan, Cg1 reference): 0.41
- change in BPND in ATX condition (Tha) ([3]; thalamus, ATX 1-2 mg/Kg i.v. pre-injection): 6%
- Displacement of radiotracer by PIB ([4]; 10 μM PIB, hippocampus slices): > 80%
- Displacement of radiotracer by unlabeled PIB (in words) ([4]; 10 μM PIB, hippocampus slices): displaced
- Binding to SP compared with the other radiotracers (in words) ([4]; ^11C-TAZA vs ^11C-Dalene and ^11C-PIB): higher specific binding component; also recorded: highest binding
- Binding to SP present in AD brains compared to the normal controls (in words) ([4]; hippocampus slices): bound specifically
- reduction of IBAT binding by atomoxetine [5]: 60%
